The target of the test is N-type calcium channel (α1B (Cav2.2), β3 and α2δ subunits) (Homo sapiens, UniProt Q00975). Briefly: Functional Assay: Antagonism of N-Type Calcium Channel (FDSS calcium mobilization, KCl depolarization). The test is classed as cell-based. As to the method: A stable cell line (HEK parent) co-expressing the α1B (Cav2.2), β3 and α2δ subunits of the N-type calcium channel subunits was used. These cells were routinely grown as monolayers in low glucose-containing Dulbecco's Modified Eagle Medium supplemented with 10% FBS, 2 mM L-glutamine, 100 I.U./mL penicillin, 100 μg/mL streptomycin, 400 μg/mL G418 and 200 μg/mL Zeocin (split ratio=1:5). Cells were maintained in 5% CO2 at 37° C. Compounds of Formula (I) were prepared as 10 mM stocks in DMSO from neat compound, if available. Otherwise, the 5 or 10 mM DMSO stock solutions provided in-house were used.
Calcium mobilization responses to KCl depolarization were evaluated by measuring the intensity of calcium-mediated fluorescent signal in the presence of BD Calcium Assay Dye (BD Biosciences, Franklin Lakes, N.J., U.S.A.), utilizing a Functional Drug Screening System (FDSS) by Hamamatsu Corporation (Bridgewater, N.J. U.S.A.).
Twenty-four hr prior to assay, cells were seeded in clear-base poly-D-lysine-coated 384-well plates (BD Biosciences) at a density of 5,000 cells per well in culture medium and grown overnight in 5% CO2 at 37° C. On the day of assay, growth media were removed, and cells were loaded with BD calcium assay dye (BD Biosciences) for 35 min at 37° C. under 5% CO2 and then for 25 min at room temp. Utilizing the FDSS, cells were exposed to representative compounds of Formula (I) at varying concentrations, and intracellular calcium was measured for 5 min prior to the addition of 50 mM KCl for an additional 3 min of measurement.
Calculations and Formulas
IC50 values for representative compounds of Formula (I) were determined from six-point concentration-response experiments and represent the concentration of said compound required to inhibit 50% of the maximal response. Maximal fluorescence intensity (FI) achieved upon addition of 50 mM KCl was exported from the FDSS software and further analyzed using GraphPad Prism 3.02 (Graph Pad Software Inc., San Diego, Calif., U.S.A.). Data were normalized to the maximum average counts from quadruplicate wells for each condition in the presence of 50 mM KCl and to the minimum average counts in the presence of buffer. Theoretical curves were generated using nonlinear regression curve-fitting analysis of either sigmoidal concentration-response or sigmoidal concentration-response (variable slope), and the IC50 values with the best-fit curve determined by GraphPad Prism were reported.
Background: A change in cytosolic calcium serves as a functional read-out for many receptors and channels.

The mark [1] stands for this setting: HEK cell line, 50 mM KCl depolarization, six-point concentration-response, read-out: FDSS IC50.

Molecules are shown by their SMILES. Read-outs that look alike come from different tables or passages of the source.

Chain of N-type calcium channel (α1B (Cav2.2), β3 and α2δ subunits) (Q00975 whole entry): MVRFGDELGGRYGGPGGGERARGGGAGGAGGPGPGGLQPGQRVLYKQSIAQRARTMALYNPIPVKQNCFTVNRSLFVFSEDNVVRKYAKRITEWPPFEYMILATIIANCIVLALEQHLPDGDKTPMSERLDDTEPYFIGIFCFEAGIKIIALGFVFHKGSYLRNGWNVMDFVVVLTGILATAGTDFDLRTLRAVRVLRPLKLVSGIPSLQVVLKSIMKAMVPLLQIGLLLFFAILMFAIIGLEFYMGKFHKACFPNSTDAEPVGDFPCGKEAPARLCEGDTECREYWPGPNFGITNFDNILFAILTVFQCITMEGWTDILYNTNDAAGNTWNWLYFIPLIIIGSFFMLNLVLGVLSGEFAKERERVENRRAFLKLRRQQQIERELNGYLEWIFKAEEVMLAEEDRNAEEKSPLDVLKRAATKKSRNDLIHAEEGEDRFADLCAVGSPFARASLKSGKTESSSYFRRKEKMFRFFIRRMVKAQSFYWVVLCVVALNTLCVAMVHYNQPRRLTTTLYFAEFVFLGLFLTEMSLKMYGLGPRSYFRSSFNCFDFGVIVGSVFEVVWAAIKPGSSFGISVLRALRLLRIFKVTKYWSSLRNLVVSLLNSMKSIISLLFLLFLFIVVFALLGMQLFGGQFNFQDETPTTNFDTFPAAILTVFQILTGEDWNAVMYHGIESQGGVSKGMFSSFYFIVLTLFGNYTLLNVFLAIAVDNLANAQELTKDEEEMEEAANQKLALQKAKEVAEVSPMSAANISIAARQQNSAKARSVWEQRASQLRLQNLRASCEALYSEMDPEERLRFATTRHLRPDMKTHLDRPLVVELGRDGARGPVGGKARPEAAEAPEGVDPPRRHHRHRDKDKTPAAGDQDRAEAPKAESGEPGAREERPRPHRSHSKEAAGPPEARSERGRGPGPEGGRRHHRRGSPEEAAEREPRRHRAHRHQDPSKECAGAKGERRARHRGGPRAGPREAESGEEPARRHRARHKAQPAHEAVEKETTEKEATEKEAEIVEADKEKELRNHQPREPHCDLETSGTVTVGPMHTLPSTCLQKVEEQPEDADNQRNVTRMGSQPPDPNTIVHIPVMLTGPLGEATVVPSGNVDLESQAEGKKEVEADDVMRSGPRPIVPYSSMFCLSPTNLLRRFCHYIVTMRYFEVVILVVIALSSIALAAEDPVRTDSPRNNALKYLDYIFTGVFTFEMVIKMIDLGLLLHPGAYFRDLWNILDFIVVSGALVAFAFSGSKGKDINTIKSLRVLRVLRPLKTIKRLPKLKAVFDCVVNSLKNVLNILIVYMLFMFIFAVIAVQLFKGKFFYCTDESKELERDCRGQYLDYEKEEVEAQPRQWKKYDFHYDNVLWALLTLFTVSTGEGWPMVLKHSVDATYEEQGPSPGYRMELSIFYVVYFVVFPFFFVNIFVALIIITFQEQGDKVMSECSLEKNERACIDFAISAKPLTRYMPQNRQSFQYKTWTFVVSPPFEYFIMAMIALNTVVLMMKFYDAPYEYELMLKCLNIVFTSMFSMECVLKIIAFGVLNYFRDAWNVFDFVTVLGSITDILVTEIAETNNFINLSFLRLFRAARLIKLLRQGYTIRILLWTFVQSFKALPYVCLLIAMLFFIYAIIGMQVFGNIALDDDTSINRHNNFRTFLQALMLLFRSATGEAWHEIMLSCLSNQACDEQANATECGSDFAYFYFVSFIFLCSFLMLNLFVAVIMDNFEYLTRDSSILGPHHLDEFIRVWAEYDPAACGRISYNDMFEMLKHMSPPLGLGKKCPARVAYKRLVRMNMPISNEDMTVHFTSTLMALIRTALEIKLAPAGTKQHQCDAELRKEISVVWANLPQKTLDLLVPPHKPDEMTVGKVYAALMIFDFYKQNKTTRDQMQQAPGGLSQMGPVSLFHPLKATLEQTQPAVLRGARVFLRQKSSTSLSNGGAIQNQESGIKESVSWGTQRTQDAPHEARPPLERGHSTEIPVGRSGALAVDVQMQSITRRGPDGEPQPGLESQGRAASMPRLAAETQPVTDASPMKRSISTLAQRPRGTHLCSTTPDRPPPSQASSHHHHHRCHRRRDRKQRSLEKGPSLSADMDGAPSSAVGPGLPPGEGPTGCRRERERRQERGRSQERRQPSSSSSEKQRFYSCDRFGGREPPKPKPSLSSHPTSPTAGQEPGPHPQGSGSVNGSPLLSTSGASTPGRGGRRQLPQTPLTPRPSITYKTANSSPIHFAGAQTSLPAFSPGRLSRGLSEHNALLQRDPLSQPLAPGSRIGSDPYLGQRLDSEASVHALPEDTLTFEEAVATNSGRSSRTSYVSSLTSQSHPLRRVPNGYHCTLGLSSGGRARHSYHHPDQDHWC
Chain of N-type calcium channel (α1B (Cav2.2), β3 and α2δ subunits) (P54284 whole entry partner): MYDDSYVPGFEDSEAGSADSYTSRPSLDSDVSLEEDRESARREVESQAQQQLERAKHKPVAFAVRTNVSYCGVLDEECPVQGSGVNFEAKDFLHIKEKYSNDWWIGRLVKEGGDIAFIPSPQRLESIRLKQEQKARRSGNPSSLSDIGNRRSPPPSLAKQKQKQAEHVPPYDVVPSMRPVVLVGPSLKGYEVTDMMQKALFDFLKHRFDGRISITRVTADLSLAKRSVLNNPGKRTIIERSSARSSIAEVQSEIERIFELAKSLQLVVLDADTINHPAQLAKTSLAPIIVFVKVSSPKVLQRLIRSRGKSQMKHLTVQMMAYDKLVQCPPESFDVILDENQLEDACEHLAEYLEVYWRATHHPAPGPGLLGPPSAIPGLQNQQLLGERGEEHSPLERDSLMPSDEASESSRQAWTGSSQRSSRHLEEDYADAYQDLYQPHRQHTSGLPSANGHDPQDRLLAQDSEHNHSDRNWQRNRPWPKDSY
Chain of N-type calcium channel (α1B (Cav2.2), β3 and α2δ subunits) (P54289 25-946 partner limits assumed): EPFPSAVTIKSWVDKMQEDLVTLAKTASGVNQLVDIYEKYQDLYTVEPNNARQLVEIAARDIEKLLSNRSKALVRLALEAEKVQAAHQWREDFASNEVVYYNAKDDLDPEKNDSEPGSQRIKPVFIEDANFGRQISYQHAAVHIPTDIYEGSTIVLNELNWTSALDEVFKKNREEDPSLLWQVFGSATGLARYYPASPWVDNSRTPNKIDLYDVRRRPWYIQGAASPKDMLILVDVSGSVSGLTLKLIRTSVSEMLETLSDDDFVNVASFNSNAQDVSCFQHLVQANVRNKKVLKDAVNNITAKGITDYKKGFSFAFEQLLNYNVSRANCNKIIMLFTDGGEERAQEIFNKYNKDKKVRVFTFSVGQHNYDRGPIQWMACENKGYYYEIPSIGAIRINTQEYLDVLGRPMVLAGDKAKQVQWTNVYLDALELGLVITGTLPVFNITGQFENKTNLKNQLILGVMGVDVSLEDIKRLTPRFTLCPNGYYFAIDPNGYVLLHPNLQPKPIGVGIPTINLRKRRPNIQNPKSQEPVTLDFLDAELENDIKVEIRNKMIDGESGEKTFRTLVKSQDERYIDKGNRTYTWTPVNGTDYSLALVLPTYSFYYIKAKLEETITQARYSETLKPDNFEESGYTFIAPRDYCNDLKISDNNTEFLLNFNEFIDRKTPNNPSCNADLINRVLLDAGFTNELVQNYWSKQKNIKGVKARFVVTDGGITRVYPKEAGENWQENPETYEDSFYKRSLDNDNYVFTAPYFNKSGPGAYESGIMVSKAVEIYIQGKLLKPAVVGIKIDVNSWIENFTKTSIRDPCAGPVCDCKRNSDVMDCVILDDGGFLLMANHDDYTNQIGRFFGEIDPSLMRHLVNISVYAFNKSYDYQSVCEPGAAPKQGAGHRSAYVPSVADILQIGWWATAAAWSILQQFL
Chain of N-type calcium channel (α1B (Cav2.2), β3 and α2δ subunits) (P54289 947-1103 partner limits assumed): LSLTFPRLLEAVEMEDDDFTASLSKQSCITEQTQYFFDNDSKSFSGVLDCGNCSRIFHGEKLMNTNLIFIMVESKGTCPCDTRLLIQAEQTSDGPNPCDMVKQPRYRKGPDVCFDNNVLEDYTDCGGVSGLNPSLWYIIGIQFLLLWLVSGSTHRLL

Broadly, the inhibition is the percentage by which the read-out fell short of the control. With `COc1ccccc1-n1nc2c(c1-c1ccc(Cl)cc1)C[C@H](OCC1CCC1)C2` [Compound 84, (5S)-3-(4-chlorophenyl)-5-(cyclobutylmethoxy)-2-(2-methoxyphenyl)-2,4,5,6-tetrahydrocyclopenta[c]pyrazole], the inhibition at 0.33 µM came out at 80%. One may read the IC50 as the concentration at which inhibition is half-maximal. `COc1ccccc1-n1nc2c(c1-c1ccc(Cl)s1)CC1(C2)OCC(C)(C)CO1` [Compound 120, 3-(5-chlorothiophen-2-yl)-2-(2-methoxyphenyl)-5′,5′-dimethyl-2,6-dihydro-4H-spiro[cyclopenta[c]pyrazole-5,2′-[1,3]dioxane]]: the inhibition at 0.33 µM (0.33 μM) came to 78%. Further, under setting [1], the IC50 is 91 nM.

Regarding `COc1ccccc1-n1nc2c(c1-c1ccc(Cl)cc1)C[C@H](OCC1CCCCC1)C2` [Compound 82, (5S)-3-(4-chlorophenyl)-5-(cyclohexylmethoxy)-2-(2-methoxyphenyl)-2,4,5,6-tetrahydrocyclopenta[c]pyrazole], the inhibition at 0.33 µM worked out at 76%. In addition, the IC50 (FDSS IC50) was found to be 130 nM. Consider `CCc1nc(C)n([C@@H]2Cc3nn(-c4ccccc4OC)c(-c4ccc(C#N)cc4)c3C2)c1CC` [Compound 138, 4-[(5S)-5-(4,5-diethyl-2-methyl-1H-imidazol-1-yl)-2-(2-methoxyphenyl)-2,4,5,6-tetrahydrocyclopenta[c]pyrazol-3-yl]benzonitrile], for which, where the note is “0.33 μM”, the inhibition at 0.33 µM came to 63%. Further, under setting [1], the IC50 is 320 nM. The corresponding values for `COc1ccccc1-n1nc2c(c1-c1ccc(Cl)cc1)CC(C1CCCCC1)C2` (centres unmarked) [Compound 104, 3-(4-chlorophenyl)-5-cyclohexyl-2-(2-methoxyphenyl)-2,4,5,6-tetrahydrocyclopenta[c]pyrazole] are 61% and 140 nM. As for `COc1ccccc1-n1nc2c(c1-c1ccc(C#N)cc1)CC(CC1CCCCC1)C2` (centres unmarked) [Compound 106, 4-[5-(cyclohexylmethyl)-2-(2-methoxyphenyl)-2,4,5,6-tetrahydrocyclopenta[c]pyrazol-3-yl]benzonitrile], the inhibition at 0.33 µM (0.33 μM) was 64%. For the same molecule, under setting [1], the IC50 is 270 nM. In the case of `COc1ccccc1-n1nc2c(c1-c1ccc(Cl)cc1)C[C@H](OCC1CCCC1)C2` [Compound 83, (5S)-3-(4-chlorophenyl)-5-(cyclopentylmethoxy)-2-(2-methoxyphenyl)-2,4,5,6-tetrahydrocyclopenta[c]pyrazole], the inhibition at 0.33 µM turned out to be 92%. The IC50 under setting [1] came to 49 nM. For the molecule `COc1ccccc1-n1nc2c(c1-c1ccc(Cl)cc1)CC(N1CC(C)OC(C)C1)C2` (centres unmarked) [Compound 116, 3-(4-chlorophenyl)-5-(2,6-dimethylmorpholin-4-yl)-2-(2-methoxyphenyl)-2,4,5,6-tetrahydrocyclopenta[c]pyrazole], the inhibition at 0.33 µM (0.33 μM) stood at 77%. Under setting [1], the IC50 was 48 nM.

`OC1Cc2nn(-c3ccccc3OC(F)(F)F)c(-c3ccc(Cl)cc3)c2C1` (centres unmarked) [Compound 25, 3-(4-chlorophenyl)-2-[2-(trifluoromethoxy)phenyl]-2,4,5,6-tetrahydrocyclopenta[c]pyrazol-5-ol]: the inhibition at 1 µM (1 μM) amounted to 61%.

As for `COc1ccccc1-n1nc2c(c1-c1ccccc1)CC(C#N)C2` (centres unmarked) [Compound 9, 2-(2-methoxyphenyl)-3-phenyl-2,4,5,6-tetrahydrocyclopenta[c]pyrazole-5-carbonitrile], the inhibition at 0.33 µM (0.33 μM) worked out at 59%. For `COc1ccccc1-n1nc2c(c1-c1ccc(Cl)cc1)CC(C(C)C)C2` (centres unmarked) [Compound 92, 3-(4-chlorophenyl)-2-(2-methoxyphenyl)-5-(1-methylethyl)-2,4,5,6-tetrahydrocyclopenta[c]pyrazole], the inhibition at 0.33 µM worked out at 43%.

As to `CCOC(=O)c1cncc(C2Cc3nn(-c4ccccc4OC)c(-c4ccc(Cl)cc4)c3C2)c1` (centres unmarked) [Compound 66, Ethyl 5-[3-(4-chlorophenyl)-2-(2-methoxyphenyl)-2,4,5,6-tetrahydrocyclopenta[c]pyrazol-5-yl]pyridine-3-carboxylate], where the note is “0.33 μM”, the inhibition at 0.33 µM is 79%. The 50% inhibitory concentration (IC50) under setting [1] is 66 nM.

Source of the values: patent publication US8853418B2, “Cyclopentylpyrazoles as N-type calcium channel blockers” (Janssen Pharmaceutica NV, priority 2012, dated 2014).
